Results as given in patent publication US20230022157A1 (Achillion Pharmaceuticals, Inc., priority 2018, published 2023).
pIC50: −log10 of the molar value.

Biological target: T1, Human Factor D (Homo sapiens, UniProt P00746)
T1 construct: purified from human serum; purchased Complement Technology, Inc; host or cells: human serum (natural protein, not recombinant)
Assay: Human Factor D Assay
Type: biochemical
Settings: Human Factor D 80 nM, substrate Z-L-Lys-SBzl, assay of Example 3; read-out: IC50 (Stars)
Procedure, shortened: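 Serum-purified human factor D (80 nM final) preincubated 5 min at room temperature with test compound in 50 mM Tris, 1M NaCl, pH 7.5. Z-L-Lys-SBzl substrate and DTNB then added, each at 100 μM final. IC50 from nonlinear regression of reaction rate against compound concentration.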

T1 sequence (P00746 26-253): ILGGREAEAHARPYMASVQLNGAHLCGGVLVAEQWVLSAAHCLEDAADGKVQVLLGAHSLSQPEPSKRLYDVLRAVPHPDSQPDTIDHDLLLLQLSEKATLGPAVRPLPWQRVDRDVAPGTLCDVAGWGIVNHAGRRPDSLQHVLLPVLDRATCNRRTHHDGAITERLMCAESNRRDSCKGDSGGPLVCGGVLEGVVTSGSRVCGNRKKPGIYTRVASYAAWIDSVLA

Structure (SMILES)	pIC50
CC(=O)c1nn(CC(=O)N2[C@H](C(=O)Nc3nc(Br)ccc3C)C[C@@]3(C)C[C@@H]23)c2c(C)cc(-c3cnc(C)nc3O)cc12 [Compound 28, (1R,3S,5R)-2-(2-(3-acetyl-5-(4-hydroxy-2-methylpyrimidin-5-yl)-7-methyl-1H-indazol-1-yl)acetyl)-N-(6-bromo-3-methylpyridin-2-yl)-5-methyl-2-azabicyclo[3.1.0]hexane-3-carboxamide]	> 6.00
CC(=O)c1nn(CC(=O)N2[C@H](C(=O)Nc3nc(Br)ccc3C)C[C@@]3(C)C[C@@H]23)c2c(C)cc(-c3cnc(C(=O)O)nc3)cc12 [Compound 39, 5-(3-acetyl-1-(2-((1R,3S,5R)-3-((6-bromo-3-methylpyridin-2-yl)carbamoyl)-5-methyl-2-azabicyclo[3.1.0]hexan-2-yl)-2-oxoethyl)-7-methyl-1H-indazol-5-yl)pyrimidine-2-carboxylic acid]	> 6.00
CC(=O)c1nn(CC(=O)N2[C@H](C(=O)Nc3nc(Br)ccc3C)C[C@@]3(C)C[C@@H]23)c2c3c(c(-c4cnc(C)nc4)cc12)CCCO3 [Compound 20]	> 6.00
CC(=O)c1nn(CC(=O)N2[C@H](C(=O)NCCc3ccccc3F)C[C@@]3(C)C[C@@H]23)c2c(C)cc(-c3cnc(C)nc3)cc12 [Compound 1, (1R,3S,5R)-2-(2-(3-Acetyl-7-methyl-5-(2-methylpyrimidin-5-yl)-1H-indazol-1-yl)acetyl)-N-(2-fluorophenethyl)-5-methyl-2-azabicyclo[3.1.0]hexane-3-carboxamide]	> 6.00

Same assay, conditions: Human Factor D 80 nM, substrate Z-L-Lys-SBzl; Table 2; read-out: IC50 (Stars)

Structure (SMILES)	pIC50
CC(=O)c1cn(CC(=O)N2[C@H](C(=O)Nc3nc(Br)c(F)cc3C)C[C@@]3(C)C[C@@H]23)c2ccc(-c3cnc4cc(C)nn4c3)cc12 [Compound 211, (1R,3S,5R)-2-(2-(3-acetyl-5-(2-methylpyrazolo[1,5-a]pyrimidin-6-yl)-1H-indol-1-yl)acetyl)-N-(6-bromo-5-fluoro-3-methylpyridin-2-yl)-5-methyl-2-azabicyclo[3.1.0]hexane-3-carboxamide]	> 6.00
CC(=O)c1cn(CC(=O)N2[C@H](C(=O)Nc3cncc(Br)n3)C[C@@]3(C)C[C@@H]23)c2c(C)cc(-c3cnc(CF)nc3)cc12 [Compound 218, (1R,3S,5R)-2-(2-(3-acetyl-5-(2-(fluoromethyl)pyrimidin-5-yl)-7-methyl-1H-indol-1-yl)acetyl)-N-(6-bromopyrazin-2-yl)-5-methyl-2-azabicyclo[3.1.0]hexane-3-carboxamide]	5.00 to 6.00
C=CCC(Cc1ccccc1)NC(=O)[C@@H]1C[C@@]2(C)C[C@H]2N1C(=O)Cn1nc(C(C)=O)c2cc(-c3cnc(C)nc3)cc(C)c21 (stereo partly drawn) [Compound 174, (1R,3S,5R)-2-{2-[3-acetyl-7-methyl-5-(2-methylpyrimidin-5-yl)indazol-1-yl]acetyl}-5-methyl-N-(1-phenylpent-4-en-2-yl)-2-azabicyclo[3.1.0]hexane-3-carboxamide]	> 6.00
CC(=O)c1cn(CC(=O)N2[C@H](C(=O)Nc3cncc(Br)n3)C[C@@]3(C)C[C@@H]23)c2c(C)cc(-c3cnc4cc(C)nn4c3)cc12 [Compound 210, (1R,3S,5R)-2-(2-(3-acetyl-7-methyl-5-(2-methylpyrazolo[1,5-a]pyrimidin-6-yl)-1H-indol-1-yl)acetyl)-N-(6-bromopyrazin-2-yl)-5-methyl-2-azabicyclo[3.1.0]hexane-3-carboxamide]	> 6.00
CC(=O)c1cn(CC(=O)N2[C@H](C(=O)Nc3nc(Br)c(F)cc3C)C[C@@]3(C)C[C@@H]23)c2c(C)cc(-c3cnc(CF)nc3)cc12 [Compound 217, (1R,3S,5R)-2-(2-(3-acetyl-5-(2-(fluoromethyl)pyrimidin-5-yl)-7-methyl-1H-indol-1-yl)acetyl)-N-(6-bromo-5-fluoro-3-methylpyridin-2-yl)-5-methyl-2-azabicyclo[3.1.0]hexane-3-carboxamide]	> 6.00
CC(=O)c1nn(CC(=O)N2[C@H](C(=O)NC(C)Cc3ccoc3)C[C@@]3(C)C[C@@H]23)c2c(C)cc(-c3cnc(C)nc3)cc12 (stereo partly drawn) [Compound 181, (1R,3S,5R)-2-{2-[3-acetyl-7-methyl-5-(2-methylpyrimidin-5-yl)indazol-1-yl]acetyl}-N-[1-(furan-3-yl)propan-2-yl]-5-methyl-2-azabicyclo[3.1.0]hexane-3-carboxamide]	> 6.00
CC(=O)c1nn(CC(=O)N2[C@H](C(=O)Nc3cncc(Br)n3)C[C@@]3(C)C[C@@H]23)c2c(C)cc(-c3cnc(C(C)O)nc3)cc12 (stereo partly drawn) [Compound 109, (1R,3S,5R)-2-(2-(3-acetyl-5-(2-(1-hydroxyethyl)pyrimidin-5-yl)-7-methyl-11H-indazol-1-yl)acetyl)-N-(6-bromopyrazin-2-yl)-5-methyl-2-azabicyclo[3.1.0]hexane-3-carboxamide]	> 6.00
CC(=O)c1cn(CC(=O)N2[C@H](C(=O)Nc3cncc(Br)n3)C[C@@]3(C)C[C@@H]23)c2c(C)cc(-c3cnc(C(C)O)nc3)cc12 (stereo partly drawn) [Compound 159, (1R,3S,5R)-2-(2-(3-acetyl-5-(2-(1-hydroxyethyl)pyrimidin-5-yl)-7-methyl-1H-indol-1-yl)acetyl)-N-(6-bromopyrazin-2-yl)-5-methyl-2-azabicyclo[3.1.0]hexane-3-carboxamide]	> 6.00
CC(=O)c1nn(CC(=O)N2C[C@H]3C[C@H]3[C@H]2C(=O)Nc2nc(Br)c(F)cc2C)c2c(C)cc(-c3cnc(CO)nc3)cc12 [Compound 76, (1R,2S,5S)-3-(2-(3-acetyl-5-(2-(hydroxymethyl)pyrimidin-5-yl)-7-methyl-11H-indazol-1-yl)acetyl)-N-(6-bromo-5-fluoro-3-methylpyridin-2-yl)-3-azabicyclo[3.1.0]hexane-2-carboxamide]	> 6.00
CC(=O)c1cn(CC(=O)N2[C@H](C(=O)Nc3ccc(F)c(Br)n3)C[C@@]3(C)C[C@@H]23)c2c(C)cc(-c3cnc(C)nc3)cc12 [Compound 194, (1R,3S,5R)-2-(2-(3-acetyl-7-methyl-5-(2-methylpyrimidin-5-yl)-1H-indol-1-yl)acetyl)-N-(6-bromo-5-fluoropyridin-2-yl)-5-methyl-2-azabicyclo[3.1.0]hexane-3-carboxamide]	> 6.00
CC(=O)c1nn(CC(=O)N2C[C@H]3C[C@H]3[C@H]2C(=O)Nc2nc(Br)ccc2C)c2c(C)cc(-c3cnc(CO)nc3)cc12 [Compound 61, (1R,2S,5S)-3-(2-(3-acetyl-5-(2-(hydroxymethyl)pyrimidin-5-yl)-7-methyl-11H-indazol-1-yl)acetyl)-N-(6-bromo-3-methylpyridin-2-yl)-3-azabicyclo[3.1.0]hexane-2-carboxamide]	> 6.00
CC(=O)c1nn(CC(=O)N2[C@H]3CC[C@H](C3)[C@H]2C(=O)Nc2nc(C(F)(F)F)ccc2C)c2c(C)cc(-c3cncc(C4(C(=O)O)CC4)c3)cc12 [Compound 128, 1-(5-(3-Acetyl-7-methyl-1-(2-((1S,3S,4R)-3-((3-methyl-6-(trifluoromethyl)pyridin-2-yl)carbamoyl)-2-azabicyclo[2.2.1]heptan-2-yl)-2-oxoethyl)-1H-indazol-5-yl)pyridin-3-yl)cyclopropane-1-carboxylic acid]	> 6.00
CC(=O)c1cn(CC(=O)N2[C@H](C(=O)Nc3nc(C(F)(F)F)ccc3C)C[C@@]3(C)C[C@@H]23)c2c(C)cc(-c3cnc4cc(C)nn4c3)cc12 [Compound 199, (1R,3S,5R)-2-(2-(3-acetyl-7-methyl-5-(2-methylpyrazolo[1,5-a]pyrimidin-6-yl)-1H-indol-1-yl)acetyl)-5-methyl-N-(3-methyl-6-(trifluoromethyl)pyridin-2-yl)-2-azabicyclo[3.1.0]hexane-3-carboxamide]	> 6.00
COC(=O)c1ncc(-c2ccc3c(c2)c(C(C)=O)nn3CC(=O)N2[C@H](C(=O)Nc3nc(Br)ccc3C)C[C@@]3(C)C[C@@H]23)cn1 [Compound 46, methyl 5-(3-acetyl-1-(2-((1R,3S,5R)-3-((6-bromo-3-methylpyridin-2-yl)carbamoyl)-5-methyl-2-azabicyclo[3.1.0]hexan-2-yl)-2-oxoethyl)-1H-indazol-5-yl)pyrimidine-2-carboxylate]	> 6.00
CC(=O)c1cn(CC(=O)N2[C@H](C(=O)Nc3nc(C(F)(F)F)ccc3C)C[C@@]3(C)C[C@@H]23)c2c(C)cc(-c3cnc(C)c(C)n3)cc12 [Compound 222, (1R,3S,5R)-2-(2-(3-acetyl-5-(5,6-dimethylpyrazin-2-yl)-7-methyl-1H-indol-1-yl)acetyl)-5-methyl-N-(3-methyl-6-(trifluoromethyl)pyridin-2-yl)-2-azabicyclo[3.1.0]hexane-3-carboxamide]	> 6.00
C#CCC(Cc1ccccc1)NC(=O)[C@@H]1C[C@@]2(C)C[C@H]2N1C(=O)Cn1nc(C(C)=O)c2cc(-c3cnc(C)nc3)cc(C)c21 (stereo partly drawn) [Compound 175, (1R,3S,5R)-2-{2-[3-acetyl-7-methyl-5-(2-methylpyrimidin-5-yl)indazol-1-yl]acetyl}-5-methyl-N-(1-phenylpent-4-yn-2-yl)-2-azabicyclo[3.1.0]hexane-3-carboxamide]	> 6.00
CC(=O)c1cn(CC(=O)N2[C@H](C(=O)Nc3nc(C(F)(F)F)ccc3C)C[C@@]3(C)C[C@@H]23)c2c(CF)cc(-c3cnc(C)nc3)cc12 [Compound 239, (1R,3S,5R)-2-(2-(3-acetyl-7-(fluoromethyl)-5-(2-methylpyrimidin-5-yl)-1H-indol-1-yl)acetyl)-5-methyl-N-(3-methyl-6-(trifluoromethyl)pyridin-2-yl)-2-azabicyclo[3.1.0]hexane-3-carboxamide]	> 6.00
CC(=O)c1nn(CC(=O)N2[C@H](C(=O)NCC3(C)CC3)C[C@@]3(C)C[C@@H]23)c2c(C)cc(-c3cnc(C)nc3)cc12 [Compound 89, (1R,3S,5R)-2-{2-[3-acetyl-7-methyl-5-(2-methylpyrimidin-5-yl)indazol-1-yl]acetyl}-5-methyl-N-[(1-methylcyclopropyl)methyl]-2-azabicyclo[3.1.0]hexane-3-carboxamide]	> 6.00
